Source: patent US9527857B2, “HSPC-sparing treatments for RB-positive abnormal cellular proliferation” (G1 Therapeutics, Inc., priority 2013, dated 2016)
Entries after “also recorded” stand apart in the source; their conditions may differ.

How the values were obtained:
[1] = system: MCF7 (breast adenocarcinoma, Rb-positive); experiment: Cellular proliferation assay (CellTiter-Glo), MCF7; format: cell-based
Description: The MCF7 cells were seeded in Costar (Tewksbury, Mass.) 3903 96 well tissue culture treated white walled/clear bottom plates. A nine point dose response dilution series from 10 uM to 1 nM was performed and cell viability was determined after six days of compound treatment as indicated using the CellTiter-Glo® luminescent cell viability assay (CTG; Promega, Madison, Wis., United States of America) following the manufacturer's recommendations. Plates were read on a BioTek (Winooski, Vt.) Syngergy2 multi-mode plate reader. The Relative Light Units (RLU) were plotted as a result of variable molar concentration and data was analyzed using Graphpad (LaJolla, Calif.) Prism 5 statistical software to determine the EC50 for each compound.
(§1) Cellular proliferation assays were conducted using the following cancer cell lines: MCF7 (breast adenocarcinoma—Rb-positive), ZR-75-1 (breast ductal carcinoma—Rb-positive), H69 (human small cell lung cancer—Rb-negative) cells, or A2058 (human metastatic melanoma cells—Rb-negative). These cells were seeded in Costar (Tewksbury, Mass.) […] 96 well tissue culture treated white walled/clear bottom plates. Cells were treated with the compounds of Table 1 as nine point dose response dilution series from 10 uM to 1 nM. Cells were exposed to compounds and then cell viability was determined after either four (H69) or six (MCF7, ZR75-1, A2058) days as indicated using the CellTiter-Glo® luminescent cell viability assay (CTG; Promega, Madison, Wis., United States of America) following the manufacturer's recommendations. Plates were read on BioTek (Winooski, Vt.) Syngergy2 multi-mode plate reader. The Relative Light Units (RLU) were plotted as a result of variable molar concentration and data was analyzed using Graphpad (LaJolla, Calif.) Prism 5 statistical software to determine the EC50 for each compound.

[2] = system: tHS68 cells (CDK4/6-dependent, Rb-positive); experiment: Cell cycle arrest (propidium iodide flow cytometry), tHS68; format: cell-based; details: 24 hours
Text: (§2) To test the ability of CDK4/6 inhibitors to induce a clean G1-arrest, a cell based screening method was used consisting of two CDK4/6-dependent cell lines (tHS68 and WM2664; Rb-positive) and one CDK4/6-independent (A2058; Rb-negative) cell line. […] At the conclusion of the experiment, cells were harvested, fixed, and stained with propidium iodide (a DNA intercalator), which fluoresces strongly red (emission maximum 637 nm) when excited by 488 nm light. Samples were run on Dako Cyan flow cytometer and >10,000 events were collected for each sample. Data were analyzed using FlowJo 2.2 software developed by TreeStar, Inc.

[3] = system: ZR-75-1 (breast ductal carcinoma, Rb-positive); experiment: Cellular proliferation assay (CellTiter-Glo), ZR-75-1; format: cell-based
Description: as §1

HSPCs (LKS+) = experiment: Bone marrow HSPC proliferation by EdU incorporation and flow cytometry; format: in vivo; details: 150 mg/kg oral gavage, mice
Description: . JCNI 2012; 104(6):476-487 (FIG. 2A). […].
Mice were then sacrificed at the indicated times (0, 12, 24, 36, or 48 hours following compound administration), and bone marrow was harvested (n=3 mice per time point), as previously described (Johnson et al. J. Clin. Invest. (2010) 120(7), 2528-2536). Four hours before the bone marrow was harvested, mice were treated with 100 μg of EdU by intraperitoneal injection (Invitrogen). Bone marrow mononuclear cells were harvested and immunophenotyped using previously described methods and percent EdU positive cells were then determined (Johnson et al. J. Clin. Invest. (2010) 120(7), 2528-2536). In brief, HSPCs were identified by expression of lineage markers (Lin−), Sca1 (S+), and c-Kit (K+).
Four hours before animals were sacrificed and the bone marrow was harvested, mice were treated with 100 μg of EdU by intraperitoneal injection. Three mice per group were sacrificed at 12 hours and the remaining three animals per group were sacrificed at 24 hours. Results are shown in FIG. 5A as the ratio of EdU positive cells for treated animals at 12 or 24 hour time points compared to control.
Further experiments were completed with Compound T examining dose response and longer periods of compound treatment. […] […].
Both compounds were administered at 150 mg/kg by oral gavage. One hour prior to harvesting bone marrow, EdU was IP injected to label cycling cells. Bone marrow was harvested at 12, 24, 36, and 48 hours after compound treatment and the percentage of EdU positive HSPC cells was determined at each time point.

[4] = system: A2058 cells (CDK4/6-independent, Rb-negative); experiment: Cell cycle arrest (propidium iodide flow cytometry), A2058; format: cell-based; details: 300 nM, 24 hours
Text: as §2

## CN1CCN(c2ccc(Nc3ncc4cc5n(c4n3)C3(CCCCC3)CNC5=O)nc2)CC1 [T]
[1]
  activity against MCF-7 cells compared with PD0332991 (FIG. 21): more potent activity against MCF-7 cells than PD0332991
  inhibition of cellular proliferation of MCF-7 cells (FIGS. 21-24): significant inhibition of cellular proliferation
[2]; 300 nM, tHS68
  cell cycle distribution after treatment: causes a loss of the S-phase peak
[2]; tHS68 cells, 28% at baseline
  S-phase cells at the highest concentration shown: 6%
[3]
  activity against ZR75-1 cells compared with PD0332991 (FIG. 25): more potent activity against ZR75-1 cells than PD0332991
  inhibition of cellular proliferation of ZR75-1 cells (FIGS. 25-28): significant inhibition of cellular proliferation
HSPCs (LKS+)
  EdU incorporation into HSPCs at 12 and 24 hours (FIG. 5A): reduction in EdU incorporation at 12 hours which was starting to return to normal at 24 hours
[4]
  cell cycle distribution after treatment: no effect; also recorded: does not cause a loss of the S-phase peak
